In publication PMC9296036, “A peptide interfering with the dimerization of oncogenic KITENIN protein and its stability suppresses colorectal tumour progression” (Clinical and Translational Medicine, 2022):
Ends that are not written are not given here.

Test system: CT-26/KITENIN-V5 tumours
Experiment: Syngeneic subcutaneous tumour model, CT-26/KITENIN-V5 cells in BALB/c mice
Assay type: in vivo, mouse
Details: CT-26/KITENIN-V5, KDIP 1 and 5 mg/kg intravenously every other day for 2 weeks, dose dependent
Protocol: The CT‐26 cell/syngeneic mouse model was used to investigate the in vivo effects of KDIP on colorectal tumourigenesis, as it is reported that a syngeneic mouse tumour model is good for testing the anticancer effects of candidate substances.[25], [26] Male Balb/c mice (5‐week old) were purchased from DaMul Science, Korea and acclimated for 1 week prior to subcutaneous injection of syngeneic CT‐26/EV (3 × 10^6) or CT‐26/KITENIN cells (1 × 10^6) into the dorsum. Tumour volume was calculated using the following equation: V = 1/2 × a × b […], where a and b are the longest and shortest diameters of the tumour (in millimetres), respectively. Tumour volume was measured every other day for 14 days to verify the effects of KDIP. […]
Effect of KAI1 C‐terminal interacting tetraspanin (KITENIN) dimerization‐interfering peptide (KDIP) on tumour growth and metastasis in in vivo mouse model of colorectal cancer (CRC). […] For the evaluation of metastasis, total fluorescence emitted from liver nodules expressing iRFP was measured and counted (left panel) or metastatic tumour growth was counted as nodules that migrated to the surface of the liver, and a metastatic score was obtained by multiplying it with size (middle panel). Metastatic score or total fluorescence is represented as mean ± SEM. […]

## YARVRRRGPRRWRLVSDEAV [KDIP]
  tumour volume (in words): significantly reduced
